Source: paper PMC12022909, “A Multicomponent Reaction-Based Platform Opens New Avenues in Aryl Hydrocarbon Receptor Modulation” (ACS Central Science, 2025)

Key:
[1] = target: T1, aryl hydrocarbon receptor (AhR) (Homo sapiens, UniProt P35869); test: AhR/XRE-dependent luciferase reporter gene assay in XRE-HepG2 cells; assay type: cell-based; details: for EC50: XRE-HepG2 cells, 8 h, unit as in the supplements, read-out: AhR/XRE-dependent luciferase activity EC50
T1 construct: AhR-dependent reporter gene activity was determined in human HepG2 cells stably transfected with an XRE; endogenous in cells; host or cells: XRE-HepG2 (human HepG2 hepatoma cells stably carrying an XRE-luciferase plasmid)
T1 sequence (P35869 11-848): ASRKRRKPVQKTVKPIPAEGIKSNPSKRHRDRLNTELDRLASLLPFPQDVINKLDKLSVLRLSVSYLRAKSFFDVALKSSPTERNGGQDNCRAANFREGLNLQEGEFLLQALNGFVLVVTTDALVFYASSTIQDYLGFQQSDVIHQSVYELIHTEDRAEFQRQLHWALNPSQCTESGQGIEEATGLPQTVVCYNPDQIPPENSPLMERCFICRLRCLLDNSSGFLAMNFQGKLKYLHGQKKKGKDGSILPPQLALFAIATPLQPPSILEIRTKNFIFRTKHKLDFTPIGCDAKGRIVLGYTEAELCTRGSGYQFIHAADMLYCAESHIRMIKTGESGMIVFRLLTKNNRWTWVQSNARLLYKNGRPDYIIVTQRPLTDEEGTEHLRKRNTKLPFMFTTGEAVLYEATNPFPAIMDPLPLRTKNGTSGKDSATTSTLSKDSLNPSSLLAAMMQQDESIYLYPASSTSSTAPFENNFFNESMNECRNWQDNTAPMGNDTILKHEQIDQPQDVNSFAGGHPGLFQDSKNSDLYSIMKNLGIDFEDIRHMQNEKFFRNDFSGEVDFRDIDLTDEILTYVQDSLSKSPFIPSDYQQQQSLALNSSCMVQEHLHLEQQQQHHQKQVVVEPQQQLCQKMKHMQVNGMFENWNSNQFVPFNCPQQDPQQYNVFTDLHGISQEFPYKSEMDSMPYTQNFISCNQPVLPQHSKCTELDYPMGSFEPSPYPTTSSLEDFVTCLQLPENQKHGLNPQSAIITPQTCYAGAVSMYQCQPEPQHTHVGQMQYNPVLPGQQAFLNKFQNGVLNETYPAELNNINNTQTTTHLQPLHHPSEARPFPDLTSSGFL
Procedure: (f) AhR/XRE-dependent reporter gene activity results (EC50/μM).
Data are shown as mean ± SEM.
The human XRE -HepG2 reporter cell -line was a kind gift of K. Gradin and L. Poellinger (Karolinska Institute, Stockholm,
antibiotic/antimycotic solution, and 0.8 mg/ml G418. All cells were cultivated at 37 °C in a humidified atmosphere containing 5% CO 2.
AhR-dependent reporter gene activity was determined in human HepG2 cells stably transfected with an XRE -harboring luciferase plasmid (XRE-HepG2 cells). […] Luciferase activity was normalized to protein content.

[2] = system: Jurkat cells; test: Cell viability (Annexin V-APC, flow cytometry) in Jurkat cells; assay type: cell-based; details: 24 h
Procedure: (§1) A phosphatidylserine exposure was used to determine cell viability. Cells were washed with PBS, pelleted, and then incubated with annexin binding buffer containing Annexin V-APC (Life Technologies) for 15 min in the dark. Then, samples were analyzed by flow cytometry using FACSCanto II and FACSDiva (BD Biosciences, Franklin Lakes, NJ, USA). Data represents the percentage of non - apoptotic cells (Ann -APC-).
(§2) The cytotoxicity of a selection of the synthesized compounds was assessed after 24 hours of treatment in two human cell lines, Jurkat and HEK293T, coming from either tumoral T-cell lymphocytes or non-tumoral embryonic kidney fibroblasts, respectively. […]
(§3) the pro-apoptotic activity was not significant below 10 µM for most compounds in both cell lines, except for 5i, 5k and 5l in both cell lines, as well as 9a in Jurkat and 5e HEK293T cells (Figure S35A-B).
(§4) Moreover, the cytotoxicity of compounds 4d, 5b, 5h, 8, 10, and 12d at a higher concentration (100 µM) was assessed in both cell lines, Jurkat and HEK293T. The cytotoxicity of compounds 5b, 5h, and 12d could not be properly tested as the compounds were not soluble […]
(§5) effects observed for compound 4d in Jurkat cells and compound 8 in HEK293T cells (Figure S35C).
(§6) Figure S35. A) Jurkat and B) HEK293T cells were treated with 1 and 10 µM doses of the corresponding compound for 24 hours. Indicated doses of fluorizoline were used as a positive control of cell death. C) Jurkat and HEK293T cells were treated with 100 µM of the corresponding compound for 24 hours. Viability was measured by flow cytometry, and it is expressed as the mean ± SEM (n = 3) of the percentage of non -apoptotic cells (Ann-APC-). * p < 0.05, ** p < 0.01 *** p < […]
(§7) (1 picture or pasted object on this page, not shown here)

[3] = system: HEK293T cells; test: Cell viability (Annexin V-APC, flow cytometry) in HEK293T cells; assay type: cell-based; details: 24 h
Procedure: as §1, §2, §3, §4, §5, §6, §7

[4] = Solubility in the growing media during cytotoxicity testing; assay type: physicochemical; details: concentration of 100 µM
Procedure: as §1, §2, §3, §4, §5, §6, §7

[5] = system: HaCaT cells; test: UVA phototoxicity, caspase 3 activity in HaCaT cells; assay type: cell-based, human; details: for UVA radiation-induced caspase activity (phototoxicity): HaCaT, 1 h, UVA 5 J/cm2
Procedure: Irradiation with UVA and caspase 3 activity measurement […]
culture media was exchanged with PBS and the cells were sham or UVA (5 J/cm2) irradiated using the BS-02 irradiation chamber (Opsytec Dr. Gröbel, Ettlingen Germany). Media was added to the cells and after 4 h incubation, caspase 3 activity was measured as described previously.[33] Protein quantification was done with the Bio-Rad DC protein assay kit (Bio-Rad Laboratories, Hercules, CA) according to the manufacturer protocol.
We compared the phototoxic potential of five of our test compounds (8, 10, 5b, 5h, 4b) as well as the FDA-approved AhR activator […]
induced caspase activity at a concentration of 100 nM (Figure S36A). At a 10-fold higher concentration (1 µM) two of the test compounds […]
Figure S36. […] For statistical analysis a two-way ANOVA (Tukey post-hoc) was performed and data are shown as mean ± SEM. (*, p ≤ 0.05). […]

Compound	EC50 [1] [nM]	increase in the EC50 value relative to 5c ([1]; from reporter gene EC50 values) [fold]	cytotoxicity / pro-apoptotic activity at 100 µM [2]	cytotoxicity / pro-apoptotic activity at 100 µM [3]	solubility in the growing media [4]	overlap between effective and toxic concentrations [5]	UVA radiation-induced caspase activity (phototoxicity) ([5]; 100 nM)	UVA radiation-induced caspase activity (phototoxicity) ([5]; 1 µM)
Cc1[nH]c2ccccc2c1-c1c2[nH]c3ccccc3c2cc2[nH]c3ccccc3c12 [5e]	520	1.4	–	–	–	–	–	–
CCOc1c2[nH]c3ccccc3c2cc2[nH]c3ccccc3c12 [compound 8, 6-ethoxy-ICZ]	90	–	minimal pro-apoptotic activity	slight cytotoxic effects	slight turbidity	minimal overlap	neither tapinarof nor our 6-ICZ compounds enhanced	exhibited similar effects to FICZ
